From patent US20220117989A1, “COMPOSITIONS AND METHODS FOR INDUCING OR SUPPLEMENTING SOCS3 TO ABROGATE TUMOR GROWTH AND PROLIFERATIVE RETINOPATHY” (Children's Medical Center Corporation, priority 2019, published 2022)
Read-outs that look alike come from different tables or passages of the source.

Legend:
[1] = system: Lewis lung carcinoma cell line; assay: Lewis lung carcinoma (LLC) cells implanted in Socs3f/f and Socs3 Nestin ko mice, tumor growth curves; assay type: in vivo, mouse
[2] = system: tumor associated macrophages; assay: FACS analysis of tumor macrophage populations (M1, M2, TIDC); assay type: in vivo, mouse
From the text: The impact of the above-recited modes of Socs3 modulation upon monocyte differentiation was examined (FIGS. 20-26), employing FACS analysis of monocyte populations (FIG. 20 provides an overview of the FACS approach, where green cells were positively charged and therefore sorted towards an anode plate while negatively charged red cells were sorted toward a […]).

Socs3 = Socs3 levels after naringenin administration to tumor-bearing mice; assay type: in vivo, mouse
From the text: The surprising efficacy of localized Socs3 overexpression in reducing tumor growth prompted interest in identifying compounds capable of up-regulating Socs3. One candidate molecule for up-regulation of Socs3 was Naringenin, a flavanone compound. […] Naringenin administration was also observed to have shrunk tumors at the day 12-13 timepoint examined, with 100% of tumors of Socs3f/f mice and 60% of tumors in Socs3 nestin conditional knockout mice observed to have shrunk at day 13 of the timecourse (FIGS. 18B and 18C).

tumors = assay: FACS of immune cells isolated from tumors treated with Naringenin or vehicle control; assay type: in vivo
Experimental: FIG. 45 is a series of plots quantifying the tumor volume, total tumor cells isolated from tumors, total CD45 positive cells and percentage of CD45 positive cells vs. total cells in control- or Naringenin-treated tumors. 1,2,3,4,5 represents the individual tumor in each group. In order to determine whether Naringenin influences the infiltrating of different immune cell types into tumors, fluorescence-activated cell sorting (FACS) was conducted on cells isolated from tumors treated with Naringenin or vehicle control.

[3] = system: B16F10-Luciferase Melanoma cell line; assay type: in vivo, mouse
LLC tumor = assay type: in vivo, mouse; settings: as compared to PBS-treated controls
From the text: The effect of donepezil treatment was also examined in wild-type, heterozygote alpha-7 AChR knockout mice and homozygote alpha-7 AChR knockout mice (FIG. 40A).

tumor cell = settings: mouse, in vivo
[4] = agent administered to model mice, versus control animals

Compound: O=C1NC[C@@]2(CN3CCC2CC3)O1 [AR-R17779, (2S)-2′H-spiro[4-azabicyclo[2.2.2]octane-2,5′-[1,3]oxazolidin]-2′-one]
- tumor growth, LLC tumor cells [1, 4]: significantly prevented tumor growth
- tumor size ([1]; day 10 post-implantation in model mice): decreased tumor size
- M1 macrophage levels ([2]; Socs3 neuronal deficient tumor): promoted M1 macrophage levels
- M2 macrophage levels ([2]; Socs3 neuronal deficient tumor): not promoting M2 macrophage levels
- M1 macrophage levels ([2]; wild-type tumor): promoted M1 macrophage levels
- M2 macrophage levels ([2]; wild-type tumor): did not change M2 macrophage levels

Compound: O=C1C[C@@H](c2ccc(O)cc2)Oc2cc(O)cc(O)c21 [Naringenin]
- tumors observed to have shrunk, Socs3f/f mice ([1]; day 13 of the timecourse, Socs3f/f mice): 100%
- tumors observed to have shrunk, Socs3 nestin conditional knockout mice ([1]; day 13 of the timecourse, Socs3 nestin conditional knockout mice): 60%
- tumor growth, naringenin administration ([1]; treatment administered on day 4, Socs3-containing and Socs3 nestin conditional knockout mice): significantly decreased tumor growth
- M1 macrophage levels ([2]; Socs3 neuronal deficient tumor): promote M1 macrophage levels
- M2 macrophage levels ([2]; Socs3 neuronal deficient tumor): reducing M2 macrophage levels
- M1 macrophage levels ([2]; wild-type tumor): promoted M1 macrophage levels
- M2 macrophage levels ([2]; wild-type tumor): did not change M2 macrophage levels
- Socs3 levels (Socs3): increased Socs3 levels
- population of CD4+ T cells in the tumors (tumors; Naringenin treatment): did not change
- percentage of CD45+ γδ T cells (tumors; Naringenin-treated group): increased
- CD8+ T cell recruitment into tumors (tumors; Naringenin-treated tumors): variations
- percentage of natural killer (NK) cells of CD45+ cells (tumors; compared to the control-treated group): higher
- tumors, based on tumor volume and total cells isolated from the entire tumors (tumors; compared with control group): significantly suppressed

Compound: COc1cc2c(cc1OC)C(=O)C(CC1CCN(Cc3ccccc3)CC1)C2 (stereo not shown) [donepezil]
- tumor growth, B16F10 tumor cells [3, 4]: prevented tumor growth
- tumor growth, LLC tumor cells [1, 4]: prevented tumor growth
- F4/80+/CD11c+ (M1 macrophage) cells ([2]; mouse, in vivo): expanded population
- TIDC population (CD45+; F4/80+; CD11c+ cells) ([2]; mouse, in vivo): expanded
- tumor growth rate, homozygous alpha-7 AChR knockout mice (LLC tumor): robust reduction of tumor growth rate
- tumor growth, heterozygote alpha-7 AChR knockout mice (LLC tumor): significant reduction in tumor growth

Compound: Botulinum toxin [Botox]
- tumor growth, nestin-conditional Socs3 knockout mice (tumor cell): no additional effect on tumor growth
- tumor growth, wild-type mice (tumor cell): effectively mimicked the tumor growth effect of nestin-conditional Socs3 knockout
- tumor seeding (tumor cell): promoted tumor seeding

Compound: alpha-bungarotoxin [a-BTX]
- tumor growth, B16F10 tumor cells ([3]; mouse, in vivo): promoted tumor growth
- tumor growth, LLC tumor cells ([1]; mouse, in vivo): promoted tumor growth
- TIDC population (CD45+; F4/80+; CD11c+ cells) ([2]; mouse, in vivo): contracted
